# Laboratory results from article PMC9386795 (ACS Omega, 2022).
# “Also recorded” adds a separate entry of the source.
# Columns and labels:
# [1] = system: wild-type PA (WTPA), P. aeruginosa ATCC 9027; assay: Broth microdilution MIC assay against WTPA; conditions: for MIC: Pseudomonas aeruginosa, ATCC9027, read-out: WTPA MIC
# [2] = system: methicillin susceptible SA (MSSA), S. aureus ATCC 29213; assay: Broth microdilution MIC assay against MSSA; conditions: for MIC: Staphylococcus aureus, ATCC29213|MSSA, read-out: MSSA MIC
# PA [3] = assay: Adjuvant assay with pentamidine, PA growth in liquid culture; type: cell-based, Pseudomonas aeruginosa; conditions: 50 and 100 μM pentamidine, compared to compound alone
# PA ATP synthase = PA ATP synthase (Pseudomonas aeruginosa, UniProt Q9HT15); assay: ATP synthesis assay with PA inverted membrane vesicles; type: biochemical; conditions: for extent of inhibition of ATP synthesis activity at highest concentration: 128 μg/mL compound; for inhibition of PA ATP synthase (in words): PA inverted membrane vesicles
# [4] = system: electron transport chain in PA vesicles; assay: Electron transport chain activity; type: biochemical, Pseudomonas aeruginosa; conditions: 64 μg/mL compound, NADH
# PA [5] = conditions: cited from earlier work
# [6] = n = 3, >85% reduction in growth at OD 590 nm
Compound,MIC [1],MIC [2],extent of inhibition of ATP synthesis activity at highest concentration (PA ATP synthase),inhibition of PA ATP synthase (in words) (PA ATP synthase),reduction of PA growth when co-dosed with pentamidine (in words) (PA [3]),other results
"COC(=O)[C@H](Cc1ccc(O)cc1)NCc1cc2ccccc2nc1SC [Compound 22, Methyl ((2-(Methylthio)quinolin-3-yl)methyl)-L-tyrosinate]",> 256 µg/mL,> 128 µg/mL,complete inhibition,dose-dependent inhibition; also recorded: active; also recorded: strongest activity,statistically significant reduction,
"COC(=O)[C@@H](Cc1c[nH]cn1)NCc1cc2ccccc2nc1OC [Compound 23, Methyl ((2-Methoxyquinolin-3-yl)methyl)-D-histidinate]",> 128 µg/mL,> 128 µg/mL,,,,
"CCOC(=O)C1=C(C)NC(=O)NC1c1cc2ccccc2nc1OC (stereo not shown) [Compound 9, Ethyl 4-(2-Methoxyquinolin-3-yl)-6-methyl-2-oxo-1,2,3,4-tetrahydropyrimidine-5-carboxylate]",> 128 µg/mL,> 128 µg/mL,,,,
"COC(=O)[C@@H](NCc1cc2ccccc2nc1OCc1ccccc1)C(C)C [Compound 15, Methyl ((2-(Benzyloxy)quinolin-3-yl)methyl)-L-valinate]",> 256 µg/mL,> 128 µg/mL,not complete,dose-dependent inhibition; also recorded: active,no significant reduction in growth,
"COC(=O)[C@H](Cc1ccc(O)cc1)NCc1cc2ccccc2nc1OCc1ccccc1 [Compound 21, Methyl ((2-(Benzyloxy)quinolin-3-yl)methyl)-L-tyrosinate]",> 128 µg/mL,> 128 µg/mL,,not active,,
(E)-2-(2-((2-Methoxyquinolin-3-yl)methylene)hydrazineyl)-4-phenylthiazole [Compound 13],,,,,,"WTPA MIC [1, 6]: >128 µg/mL; MSSA MIC [2, 6]: >128 µg/mL"
"COC(=O)[C@H](Cc1ccc(O)cc1)NCc1cc2ccccc2nc1OC [Compound 20, Methyl ((2-Methoxyquinolin-3-yl)methyl)-L-tyrosinate]",> 128 µg/mL,> 128 µg/mL,,,,
"COC(=O)[C@H](C)NCc1cc2ccccc2nc1OC [Compound 14, Methyl ((2-Methoxyquinolin-3-yl)methyl)-L-alaninate]",> 128 µg/mL,> 128 µg/mL,,,,
"COC(=O)[C@H](Cc1c[nH]c2ccccc12)NCc1cc2ccccc2nc1OC [Compound 18, Methyl ((2-Methoxyquinolin-3-yl)methyl)-L-tryptophanate]",> 256 µg/mL,> 128 µg/mL,complete inhibition,dose-dependent inhibition,statistically significant reduction; also recorded: largest reduction in PA growth of the set,
"COc1nc2ccccc2cc1/C=N/NC(N)=S [Compound 12, (E)-2-((2-Methoxyquinolin-3-yl)methylene)hydrazine-1-carbothioamide]",> 128 µg/mL,> 128 µg/mL,,,,activity against PA (in words) (PA [5]; compared with 11): weaker activity
"COC(=O)[C@@H](CCSC)NCc1cc2ccccc2nc1OC [Compound 16, Methyl ((2-Methoxyquinolin-3-yl)methyl)-D-methioninate]",> 128 µg/mL,> 128 µg/mL,,,,

# Now from value to compound, other results behind:
MIC [1],MIC [2],extent of inhibition of ATP synthesis activity at highest concentration (PA ATP synthase),inhibition of PA ATP synthase (in words) (PA ATP synthase),Compound,reduction of PA growth when co-dosed with pentamidine (in words) (PA [3]),other results
> 256 µg/mL,64 µg/mL,not complete,dose-dependent inhibition,"COC(=O)[C@@H](CCSC)NCc1cc2ccccc2nc1SC [Compound 17, Methyl ((2-(Methylthio)quinolin-3-yl)methyl)-D-methioninate]",statistically significant reduction,
> 128 µg/mL,> 128 µg/mL,,dose-dependent inhibition,"COc1nc2ccccc2cc1/C=N/NC(=O)c1ccccc1 [Compound 10, (E)-N′-((2-Methoxyquinolin-3-yl)methylene)benzohydrazide]",,H+ gradient formation by the electron transport chain [4]: significant inhibition; IC50 (PA ATP synthase): 6.55 to 55.7 µM
> 256 µg/mL,> 128 µg/mL,not complete,dose-dependent inhibition,"COC(=O)[C@H](Cc1c[nH]c2ccccc12)NCc1cc2ccccc2nc1SC [Compound 19, Methyl ((2-(Methylthio)quinolin-3-yl)methyl)-L-tryptophanate]",statistically significant reduction,
> 128 µg/mL,> 128 µg/mL,,,"COc1nc2ccccc2cc1/C=N/N=C/c1cc2ccccc2nc1OC [Compound 11, (1E,2E)-1,2-Bis((2-methoxyquinolin-3-yl)methylene)hydrazine]",,MIC (PA [5]; PA): 80 µg/mL
,64 µg/mL,,,"CSc1nc2ccccc2cc1C=O [Compound 6, 2-(Methylthio)quinoline-3-carbaldehyde]",,
